The results in this text go back to PMC7250851, “Discovery of a new sialic acid binding region that regulates Siglec-7” (Scientific Reports, 2020).

One assay has as its system T1, Siglec-7V R67A.
T1 construct: DNA fragments encoding human Siglec-7 V-set domain (residues 18–144) and the mutants were sub-cloned into the pCold-PDI vector; (His)6-PDI (cleaved yes); made in house; host or cells: Escherichia coli Origami B (DE3)
Kind of assay: STD-NMR and 1H-NMR titration. The settings on record: protein:ligand 1:20, 10 °C, pH 7.9. It counts as binding, human. The method, then: (§1) Recombinant human Siglec-7 V-set domain and its mutants (R67A, R124A, R67K) were prepared using the pCold-PDI vector as previously described with modifications. DNA fragments encoding human Siglec-7 V-set domain (residues 18–144) and the mutants were sub-cloned into the pCold-PDI vector. The plasmids were transformed into Escherichia coli Origami B (DE3) (Novagen), and the cells were grown at 37 °C in LB medium. After induction with isopropyl β-D-thiogalactoside (0.5 mM), the cells were cultured at 15 °C for further 16 h. Then the cells were harvested and sonicated in 20 mM Tris-HCl (pH 8.0), and containing 0.1 M NaCl and 0.1 mM EDTA. After centrifugation, the supernatant containing (His)6-PDI-fused protein was collected and applied to a Ni sepharose column (GE healthcare) equilibrated with 20 mM Tris-HCl (pH 8.0), and containing 0.1 M NaCl. After washing with 20 mM Tris-HCl (pH 8.0) containing 0.1 M NaCl and 20 mM imidazole, the protein was eluted with 20 mM Tris-HCl (pH 8.0) containing 0.1 M NaCl and 500 mM imidazole. The (His)6-PDI-fused protein was extensively dialysed against 50 mM Tris-HCl (pH 8.0) containing 0.1 M NaCl, 5 mM reduced glutathione, 0.5 mM oxidised glutathione, and 10% glycerol. The protein was then digested with TEV protease to remove the (His)6-PDI tag. The digested proteins were passed through the Ni sepharose column and the final purification was performed with a Hiroad Superdex 75 pg size exclusion column (GE healthcare) equilibrated with 20 mM Tris-HCl (pH 8.0) containing 0.1 M NaCl.
(§2) NMR spectra were collected using the DRX-600 (600 MHz) spectrometer (Bruker; Billerica, MA, US) equipped with a TXI-probe. The probe temperature was set at 283 K. Siglec-7 V-set domains (WT, R124A, R67A) were prepared with 10 mM phosphate buffer including 150 mM NaCl in D2O (D: 99%). The final protein concentration before addition of the ligand was 55 μM (pH 7.9). The 5.5 mM diSia and triSia solutions (pH 7.9) in PBS were gradually added into the protein solution to achieve the protein:ligand molar ratios of 1:0, 1:1, 1:2, 1:5, 1:10, and 1:20; the ^1H-NMR spectra were obtained with the WATERGATE pulse sequence in each protein:ligand ratio. Data were collected for 1024 scans by suppressing the residual HDO signal to 3-9-19 pulse train. Saturation Transfer Difference (STD) NMR experiments were performed at the protein:ligand ratio of 1:20. The protein signal was saturated on resonance at 0.15 ppm and off resonance at 40 ppm with a cascade of 60 selective Gaussian shaped pulses of 50 ms duration and 3 s saturation in total. The WATERGATE pulse sequence was used to suppress the residual HDO signal, and a spin-lock filter with a strength of 8 kHz and a duration of 10 ms was applied to suppress protein background signal. All STD NMR experiments were collected for 1024 scans with an inter pulse delay of 100 μs. The Sias signal assignments have been previously described by Jennings et al.[34].

Another assay concerns T2, Siglec-7V WT.
T2 construct: DNA fragments encoding human Siglec-7 V-set domain (residues 18–144) and the mutants were sub-cloned into the pCold-PDI vector; (His)6-PDI (cleaved yes); made in house; host or cells: Escherichia coli Origami B (DE3)
In words: STD-NMR and 1H-NMR titration. It counts as binding, human. The conditions noted are these: protein:ligand 1:20, 10 °C, pH 7.9. The method, then: as §1, §2

In another assay the test system is T3, Siglec-7V R124A.
T3 construct: DNA fragments encoding human Siglec-7 V-set domain (residues 18–144) and the mutants were sub-cloned into the pCold-PDI vector; (His)6-PDI (cleaved yes); made in house; host or cells: Escherichia coli Origami B (DE3)
In words: STD-NMR and 1H-NMR titration. The conditions noted are these: protein:ligand 1:20, 10 °C, pH 7.9. It counts as binding, human. The method, then: as §1, §2

The target in assay [1] is T4, GD3-Siglec-7EcFc interaction (Homo sapiens, UniProt Q9Y286).
T4 construct: the extracellular domain of Siglec-7 fused with the human IgG1 Fc region; made in house
In words: Inhibition of GD3-Siglec-7EcFc binding (ELISA, double reciprocal plots). The conditions noted are these: for Inhibition type: double reciprocal plots. Here is the method:
(§3) For ganglioside binding assay, 96-well plates (Nunc, Roskilde, Denmark) were coated with 50 μL/well of 0–6.0 µM ganglioside in ethanol and left to air dry overnight or at 37 °C for 2 h. The wells were washed three times with TBS and blocked with 1% BSA (w/v) in TBS. Siglec-7-Fc fusion protein (64 pmol/mL) was pre-complexed with a 1/1000 dilution of horseradish peroxidase-conjugated goat anti-human IgG + M + A (American Qualex) for 30 min at room temperature, and 50 μL of reaction mixture was added to each well. After 2 h incubation at room temperature, the wells were washed extensively, then 100 µL of 0.05% o-phenylenediamine in 0.1 M Tris-HCl (pH 6.8) containing 0.006% H2O2 was added and incubated at room temperature. The absorbance was then measured at 490 nm (Bio-Rad, Hercules, CA) after the addition of 100 µL of 2 N sulphuric acid. For measurement of the inhibition toward GD3-Siglec-7 interaction, inhibitors (0–200 μM for octyl-α2,8-mono/di/tri/teraSia, 0–50 μM for tetradecyl-ganglioside glycan), Siglec-7, and peroxidase conjugated anti-human IgG + IgM + IgA were pre-incubated at 25 °C for 30 min, and the reaction mixture with or without inhibitor was used as described above. All experiments were performed three times.
In general terms: An ELISA detects its analyte on a solid surface through an enzyme-linked reagent.

In another assay the test system is T5, Siglec-7EcFc (WT).
T5 construct: the extracellular domain of Siglec-7 fused with the human IgG1 Fc region; made in house
Kind of assay: ELISA binding of Siglec-7EcFc to immobilised gangliosides / (Neu5Ac)n-PE. Also on record: species or system human. The conditions noted are these: ligand coated on plastic wells. The method, then: as §3

A further assay concerns T6, Siglec-7EcFc (R92K).
T6 construct: the extracellular domain of Siglec-7 fused with the human IgG1 Fc region; made in house
The description is as above. Details: species or system human. The conditions noted are these: ligand coated on plastic wells, compared with WT. The method, then:
as §3

For the next assay, the system named is T7, Siglec-7EcFc (R67K).
T7 construct: the extracellular domain of Siglec-7 fused with the human IgG1 Fc region; made in house
The description is as above. Also on record: species or system human. The conditions noted are these: ligand coated on plastic wells, compared with WT. Here is the method: as §3

A further assay concerns T8, Siglec-7EcFc (R67A).
T8 construct: the extracellular domain of Siglec-7 fused with the human IgG1 Fc region; made in house
Described as above. Details: species or system human. The settings on record: ligand coated on plastic wells, compared with WT. Here is the method: as §3

The next assay deals with T9, Siglec-7EcFc (R92A).
T9 construct: the extracellular domain of Siglec-7 fused with the human IgG1 Fc region; made in house
The assay is described as above. Also on record: species or system human. The conditions noted are these: ligand coated on plastic wells, compared with WT. Here is the method: as §3

pIC50: −log10 of the molar value. “Also recorded” adds a separate entry of the source.

T4 sequence (Q9Y286 19-353 limits assumed): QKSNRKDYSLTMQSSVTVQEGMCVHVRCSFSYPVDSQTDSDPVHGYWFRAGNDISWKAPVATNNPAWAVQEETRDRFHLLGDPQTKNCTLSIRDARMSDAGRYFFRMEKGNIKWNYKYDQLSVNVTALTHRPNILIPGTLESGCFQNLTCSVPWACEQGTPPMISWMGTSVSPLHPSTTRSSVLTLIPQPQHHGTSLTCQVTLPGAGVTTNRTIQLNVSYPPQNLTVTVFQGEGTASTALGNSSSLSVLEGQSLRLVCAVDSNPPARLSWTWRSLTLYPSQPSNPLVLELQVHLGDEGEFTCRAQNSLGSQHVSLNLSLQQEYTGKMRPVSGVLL

On to `CC(=O)NC1C(O)CC(OC(CO)C(O)C2OC(O)(C(=O)O)CC(O)C2NC(C)=O)(C(=O)O)OC1C(O)C(O)CO` (stereo not shown) [diSia, Neu5Acα(2-8)Neu5Ac-OH], for which the “binding in solution (STD-NMR)” value in the assay with Siglec-7V R67A is “obviously recognised”; in the assay with Siglec-7V WT, “obviously recognised”; in the assay on Siglec-7V R124A it was “very little or no interactions”.
For `CC(=O)NC1C(O)CC(OC(CO)C(O)C2OC(OC(CO)C(O)C3OC(O)(C(=O)O)CC(O)C3NC(C)=O)(C(=O)O)CC(O)C2NC(C)=O)(C(=O)O)OC1C(O)C(O)CO` (stereo not shown) [triSia, Neu5Acα(2-8)Neu5Acα(2-8)Neu5Ac-OH], the figures for the “binding in solution (STD-NMR)” value in the assay on Siglec-7V R67A, with Siglec-7V WT and in the assay on Siglec-7V R124A were “involved in binding”, “involved in binding” and “very little or no interactions”, respectively.
As for `CCCCCCCCOC1(C(=O)O)CC(O)C(NC(C)=O)C(C(O)C(CO)OC2(C(=O)O)CC(O)C(NC(C)=O)C(C(O)C(O)CO)O2)O1` (stereo not drawn) [α2,8-diSia], the Inhibition type entry in [1] is “competitive inhibition”. Besides, in [1] (octyl glycosides, 0–200 μM), the “inhibition activity toward Siglec-7EcFc-GD3 interaction” value is given as “the effect was weak”.
The pIC50 is −log10 of the IC50, conventionally taken in molar units. A high value points to a low IC50. As to `CCCCCCCCOC1(C(=O)O)CC(O)C(NC(C)=O)C(C(O)C(CO)OC2(C(=O)O)CC(O)C(NC(C)=O)C(C(O)C(CO)OC3(C(=O)O)CC(O)C(NC(C)=O)C(C(O)C(O)CO)O3)O2)O1` (stereo not drawn) [α2,8-triSia], the Inhibition type result in assay [1] is on record as “non-competitive inhibition”. The pIC50 in assay [1] (octyl glycosides, 0–200 μM, GD3-coated plate) was over 4.00.
As to “Neu5Acα2 → 8Neu5Aα2 → 3Galβ1 → 4Glc-Cer [GD3]”, the “binding activity (ELISA)” value in the assay with Siglec-7EcFc (WT) is “higher binding activity”; in the assay with Siglec-7EcFc (R92K) it was “almost the same binding activity”; in the assay on Siglec-7EcFc (R67K), “significantly lower binding activity”; with Siglec-7EcFc (R67A), “significantly lower binding activity; also recorded: did not effectively bind”; in the assay on Siglec-7EcFc (R92A) it was “almost the same binding activity”.
On to Neu5Aα2 → 3Galβ1 → 4Glc-Cer [GM3], for which, in the assay on Siglec-7EcFc (WT), the “binding activity (ELISA)” value is given as “Almost no binding activity”.
